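Compound exposure: 48 hours, 5 concentrations, 96-well plates. Abbreviation: GI50, concentration required for 50% inhibition of growth.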 The source made the active and inactive calls. Rule as the data show it: active = GI50 up to about 1.1 µM and inactive = higher.
Tests used:
Assay in all cases: NCI anticancer screen, dose series, 48 h
786-0 = test system: 786-0
A498 = test system: A498
A549 = test system: A549
ACHN = test system: ACHN
BT-549 = test system: BT-549
CAKI-1 = test system: CAKI-1
CCRF-CEM = test system: CCRF-CEM
COLO 205 = test system: COLO 205
DU-145 = test system: DU-145
EKVX = test system: EKVX
HCC 2998 = test system: HCC 2998
HCT-116 = test system: HCT-116
HCT-15 = test system: HCT-15
HL-60 = test system: HL-60
HOP-62 = test system: HOP-62
HOP-92 = test system: HOP-92
HT-29 = test system: HT-29
Hs-578T = test system: Hs-578T
IGROV-1 = test system: IGROV-1
K562 = test system: K562
KM12 = test system: KM12
LOX IMVI = test system: LOX IMVI
M14 = test system: M14
MCF7 = test system: MCF7
MDA-MB-231 = test system: MDA-MB-231
MDA-MB-435 = test system: MDA-MB-435
MDA-N = test system: MDA-N
MOLT-4 = test system: MOLT-4
Malme-3M = test system: Malme-3M
NCI-H226 = test system: NCI-H226
NCI-H23 = test system: NCI-H23
NCI-H522 = test system: NCI-H522
NCI/ADR-RES = test system: NCI/ADR-RES
OVCAR-3 = test system: OVCAR-3
OVCAR-4 = test system: OVCAR-4
OVCAR-5 = test system: OVCAR-5
OVCAR-8 = test system: OVCAR-8
PC-3 = test system: PC-3
RPMI-8226 = test system: RPMI-8226
RXF 393 = test system: RXF 393
SF-268 = test system: SF-268
SF-295 = test system: SF-295
SF-539 = test system: SF-539
SK-MEL-28 = test system: SK-MEL-28
SK-MEL-2 = test system: SK-MEL-2
SK-MEL-5 = test system: SK-MEL-5
SK-OV-3 = test system: SK-OV-3
SN12C = test system: SN12C
SNB-19 = test system: SNB-19
SNB-75 = test system: SNB-75
SR = test system: SR
SW-620 = test system: SW-620
T47D = test system: T47D
TK-10 = test system: TK-10
U-251 = test system: U-251
UACC-257 = test system: UACC-257
UACC-62 = test system: UACC-62
UO-31 = test system: UO-31
NCI-H460 = test system: NCI-H460

Measured: GI50

COc1cc(/C=C2\C[C@H]3[C@@H]4CC=C5C=C(N6CCCC6)CC[C@]5(C)[C@H]4CC[C@]3(C)C2=O)cc(OC)c1OC
inactive: 786-0 2.84 µM | A498 8.79 µM | A549 5.24 µM | ACHN 2.32 µM | BT-549 2.12 µM | CAKI-1 2.84 µM | CCRF-CEM 2.82 µM | COLO 205 2.77 µM | DU-145 3.44 µM | EKVX 3.75 µM | HCC 2998 1.93 µM | HCT-116 1.91 µM | HL-60 1.13 µM | HOP-62 2.48 µM | HOP-92 2.21 µM | HT-29 2.95 µM | Hs-578T 2.4 µM | IGROV-1 1.79 µM | K562 3.42 µM | KM12 1.91 µM | LOX IMVI 1.48 µM | M14 2.19 µM | MCF7 3.22 µM | MDA-MB-231 2.4 µM | MDA-MB-435 1.63 µM | MDA-N 2.32 µM | MOLT-4 2.05 µM | Malme-3M 2.01 µM | NCI-H226 13.6 µM | NCI-H23 2.52 µM | NCI-H522 1.43 µM | NCI/ADR-RES 2.65 µM | OVCAR-3 1.88 µM | OVCAR-4 1.75 µM | OVCAR-5 7.1 µM | OVCAR-8 2.16 µM | PC-3 3.12 µM | RPMI-8226 2.53 µM | RXF 393 1.9 µM | SF-268 2.23 µM | SF-295 2.22 µM | SF-539 3.5 µM | SK-MEL-28 4.55 µM | SK-MEL-2 3.18 µM | SK-MEL-5 2.76 µM | SK-OV-3 6.89 µM | SN12C 2.85 µM | SNB-19 3.73 µM | SNB-75 4.51 µM | SR 1.44 µM | SW-620 3.91 µM | T47D 1.94 µM | TK-10 6.49 µM | U-251 1.96 µM | UACC-257 3.1 µM | UACC-62 2.13 µM | UO-31 4.83 µM
2.23 µM: HCT-15

CC(C)Oc1cccc(N2C(CCc3c[nH]c4ccc(Br)cc34)=NS(=O)(=O)c3cnccc32)c1
inactive: 786-0 45 µM | A498 35.4 µM | A549 29.2 µM | ACHN 28.7 µM | BT-549 57.4 µM | CAKI-1 22.7 µM | CCRF-CEM 95.5 µM | COLO 205 17.9 µM | DU-145 94.4 µM | EKVX 29.2 µM | HCC 2998 60.4 µM | HCT-116 20.3 µM | HL-60 23.3 µM | HOP-62 94 µM | HOP-92 17.5 µM | HT-29 26.2 µM | Hs-578T 64.6 µM | K562 27 µM | KM12 49.7 µM | LOX IMVI 59.7 µM | M14 32.5 µM | MCF7 21.5 µM | MDA-MB-231 > 100 µM | MDA-MB-435 46.2 µM | MDA-N 37.3 µM | MOLT-4 14.8 µM | Malme-3M 80 µM | NCI-H226 37.3 µM | NCI-H23 61.9 µM | NCI-H460 35.1 µM | NCI-H522 27.9 µM | NCI/ADR-RES 44 µM | OVCAR-3 51.3 µM | OVCAR-4 27.5 µM | OVCAR-5 29.1 µM | OVCAR-8 51.2 µM | PC-3 24.7 µM | RPMI-8226 24 µM | RXF 393 59.8 µM | SF-268 69.8 µM | SF-295 25.7 µM | SF-539 75.7 µM | SK-MEL-28 > 100 µM | SK-MEL-2 53.2 µM | SK-MEL-5 35 µM | SK-OV-3 36.8 µM | SN12C 69 µM | SNB-19 49.5 µM | SNB-75 48 µM | SR 35.3 µM | SW-620 72.3 µM | T47D 21.2 µM | TK-10 53.8 µM | U-251 64.6 µM | UACC-257 50.8 µM | UACC-62 33.3 µM | UO-31 3.64 µM
30.8 µM: HCT-15
